# Measurements from patent publication US7759345B2, “Antitumoral derivatives of ET-743” (priority 2001, dated 2010).
# Experiments:
# PANC-1 = test: Inhibition of cells growth by colorimetric assay (SRB), PANC-1; format: cell-based; settings: SRB, 48 hours exposure
# Procedure, shortened: (§1)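 Human cancer cells (5×10^3/well) attached 18 h in RPMI 1640 10% FBS, then exposed 48 h at 37°C to compounds from 10 to 10^−8 μg/ml in DMSO/EtOH/PBS. TCA-fixed, SRB-stained, OD read at 490 nm; GI, TGI and LC derived from triplicate wells.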
# A-549 = test: Inhibition of cells growth by colorimetric assay (SRB), A-549; format: cell-based; settings: SRB, 48 hours exposure
# Procedure, shortened: as §1
# HT-29 = test: Inhibition of cells growth by colorimetric assay (SRB), HT-29; format: cell-based; settings: SRB, 48 hours exposure
# Procedure, shortened: as §1
# HMEC1 = test: Inhibition of cells growth by colorimetric assay (SRB), HMEC1; format: cell-based; settings: SRB, 48 hours exposure
# Procedure, shortened: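 Human cancer and endothelial lines are seeded at 5×10^3 cells per well and, after 18 h, treated for 48 h with compound dissolved in DMSO/EtOH/PBS (0.5:0.5:99) at 10 to 10^−8 μg/ml. Cell mass is quantified by SRB staining (OD 490 nm), and growth inhibition, total growth inhibition and cell kill are calculated from triplicate wells.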
# K-562 = test: Inhibition of cells growth by colorimetric assay (SRB), K-562; format: cell-based; settings: SRB, 48 hours exposure
# Procedure, shortened: as §1
# LoVo-Dox = test: Inhibition of cells growth by colorimetric assay (SRB), LoVo-Dox; format: cell-based; settings: SRB, 48 hours exposure
# Procedure, shortened: as §1
# IGROV-1 = test: Inhibition of cells growth by colorimetric assay (SRB), IGROV-1; format: cell-based; settings: SRB, 48 hours exposure
# Procedure, shortened: as §1
# SK-MEL-28 = test: Inhibition of cells growth by colorimetric assay (SRB), SK-MEL-28; format: cell-based; settings: SRB, 48 hours exposure
# Procedure, shortened: as §1
# LoVo = test: Inhibition of cells growth by colorimetric assay (SRB), LoVo; format: cell-based; settings: SRB, 48 hours exposure
# Procedure, shortened: as §1
# DU-145 = test: Inhibition of cells growth by colorimetric assay (SRB), DU-145; format: cell-based; settings: SRB, 48 hours exposure
# Procedure, shortened: as §1
# SK-OV-3 = test: Inhibition of cells growth by colorimetric assay (SRB), SK-OV-3; format: cell-based; settings: SRB, 48 hours exposure
# Procedure, shortened: as §1
# LNCaP = test: Inhibition of cells growth by colorimetric assay (SRB), LNCaP; format: cell-based; settings: SRB, 48 hours exposure
# Procedure, shortened: as §1
# SK-BR-3 = test: Inhibition of cells growth by colorimetric assay (SRB), SK-BR-3; format: cell-based; settings: SRB, 48 hours exposure
# Procedure, shortened: as §1
# IGROV-ET = test: Inhibition of cells growth by colorimetric assay (SRB), IGROV-ET; format: cell-based; settings: SRB, 48 hours exposure
# Procedure, shortened: as §1
# Description for Heart: (§2) Toxicity was asssessed by the methods reported in Toxicology in Vitro, 15 (2001) 571-577, J. Luber Narod et al.: “Evaluation of the use of in vitro methodolodies as tools for screening new compounds for potential in vivo toxicity”.
# Description for Kidney: as §2
# Description for Liver: as §2
# Description for Myelo: as §2
# Description for Skeletal: as §2
smiles,measurement,setting,value
COc1cc2c(cc1OC)[C@@]1(CS[C@@H]3c4c(OC(C)=O)c(C)c5c(c4[C@H](COC1=O)N1C3[C@H]3c4c(cc(C)c(OC)c4OC)C[C@@H]([C@@H]1O)N3C)OCO5)NCC2 (some centres unmarked) [Compound 87],Toxicity Data Kidney,Kidney,8.09E-08
same,GI50,"PANC-1; Homo sapiens, PANC-1, 48 h, PANC-1, read-out: PANC-1 GI50",0.0253 µM
same,LC50 (concentration for 50% net cell kill),"PANC-1; Homo sapiens, PANC-1, 48 h, read-out: PANC-1 LC50, PANC-1",0.876 µM
same,PANC-1 TGI,PANC-1; PANC-1,7.39E-08
same,TGI A-549,A-549; A-549,4.77E-08
same,GI50,"A-549; Homo sapiens, A549, 48 h, A-549, read-out: GI50 A-549",0.0238 µM
same,LC50 (concentration for 50% cell killing),"A-549; Homo sapiens, A549, 48 h, read-out: A-549 LC50, A-549",0.0958 µM
same,Toxicity Data Myelo,Myelo,2.44E-07
same,Toxicity Data Heart,Heart,3.60E-08
same,HT-29 TGI,HT-29; HT-29,1.12E-07
same,GI50,"HT-29; Homo sapiens, HT-29, 48 h, HT-29, read-out: HT-29 GI50",0.0244 µM
same,LC50 (concentration for 50% cell killing),"HT-29; Homo sapiens, HT-29, 48 h, read-out: HT-29 LC50, HT-29",0.38 µM
same,HMEC-1 TGI,HMEC1; HMEC-1,9.65E-08
same,GI50,"HMEC1; Homo sapiens, HMEC-1, 48 h, HMEC-1, read-out: HMEC-1 GI50",0.0167 µM
same,LC50,"HMEC1; Homo sapiens, HMEC-1, 48 h, read-out: HMEC-1 LC50, HMEC-1",12.7 µM
same,GI50,"K-562; Homo sapiens, K562, 48 h, K-562, read-out: K-562 GI50",0.000871 µM
same,LC50 (50% cell killing),"K-562; Homo sapiens, K562, 48 h, read-out: K-562 LC50, K-562",0.00715 µM
same,K-562 TGI,K-562; K-562,2.96E-09
same,Toxicity Data Skeletal,Skeletal,2.00E-07
same,GI50,"LoVo-Dox; Homo sapiens, 48 h, LOVO-DOX, read-out: LOVO-DOX GI50",0.0387 µM
same,CC50,"LoVo-Dox; Homo sapiens, 48 h, read-out: LOVO-DOX LC50, LOVO-DOX",12.7 µM
same,LOVO-DOX TGI,LoVo-Dox; LOVO-DOX,1.42E-07
same,GI50,"IGROV-1; Homo sapiens, IGROV-1, 48 h, IGROV, read-out: IGROV GI50",0.0048 µM
same,CC50,"IGROV-1; Homo sapiens, IGROV-1, 48 h, read-out: IGROV LC50, IGROV",0.0804 µM
same,IGROV TGI,IGROV-1; IGROV,1.63E-08
same,Toxicity Data Liver,Liver,6.18E-08
same,GI50,"SK-MEL-28; Homo sapiens, SK-MEL-28, 48 h, MEL-28, read-out: MEL-28 GI50",0.0192 µM
same,CC50,"SK-MEL-28; Homo sapiens, SK-MEL-28, 48 h, read-out: MEL-28 LC50, MEL-28",0.109 µM
same,MEL-28 TGI,SK-MEL-28; MEL-28,4.57E-08
same,GI50,"LoVo; Homo sapiens, LoVo, 48 h, LOVO, read-out: LOVO GI50",0.0227 µM
same,LC50 (concentration for 50% cell killing),"LoVo; Homo sapiens, LoVo, 48 h, read-out: LOVO LC50, LOVO",0.123 µM
same,LOVO TGI,LoVo; LOVO,5.27E-08
same,DU-145 TGI,DU-145; DU-145,5.22E-08
same,GI50,"DU-145; Homo sapiens, DU-145, 48 h, DU-145, read-out: DU-145 GI50",0.0135 µM
same,CC50,"DU-145; Homo sapiens, DU-145, 48 h, read-out: DU-145 LC50, DU-145",0.18 µM
same,GI50,"SK-OV-3; Homo sapiens, SK-OV-3, 48 h, SK-OV3, read-out: SK-OV3 GI50",0.0216 µM
same,LC50,"SK-OV-3; Homo sapiens, SK-OV-3, 48 h, read-out: SK-OV3 LC50, SK-OV3",8.99 µM
same,SK-OV3 TGI,SK-OV-3; SK-OV3,6.56E-08
same,GI50,"LNCaP; Homo sapiens, LNCaP, 48 h, read-out: LNCAP GI50, LNCAP",0.00473 µM
same,CC50,"LNCaP; Homo sapiens, LNCaP, 48 h, read-out: LNCAP LC50, LNCAP",0.0405 µM
same,LNCAP TGI,LNCaP; LNCAP,1.12E-08
same,GI50,"SK-BR-3; Homo sapiens, SK-BR-3, 48 h, SK-BR3, read-out: SK-BR3 GI50",0.0165 µM
same,CC50,"SK-BR-3; Homo sapiens, SK-BR-3, 48 h, read-out: SK-BR3 LC50, SK-BR3",0.101 µM
same,SK-BR3 TGI,SK-BR-3; SK-BR3,4.08E-08
same,GI50,"IGROV-ET; Homo sapiens, 48 h, IGROV-ET, read-out: IGROV-ET GI50",0.0284 µM
same,CC50,"IGROV-ET; Homo sapiens, 48 h, read-out: IGROV-ET LC50, IGROV-ET",5.84 µM
same,IGROV-ET TGI,IGROV-ET; IGROV-ET,7.77E-08
